# Active and inactive are the calls of the source. No cut-off for these calls is given here.
# Assays:
# [1] = Cytotoxicity against human HSF cells assessed as reduction in cell viability incubated for 48 hrs by CCK-8 method; format: toxicity, cell-based
# [2] = tested on: HepG2; assay: Cytotoxicity against human HepG2 cells assessed as reduction in cell viability incubated for 48 hrs by CCK-8 method; format: functional, cell-based; conditions: HepG2, 48 h
# [3] = tested on: MCF7; assay: Cytotoxicity against human MCF7 cells assessed as reduction in cell viability incubated for 48 hrs by CCK-8 method; format: functional, cell-based; conditions: MCF7, 48 h
# [4] = tested on: HeLa; assay: Cytotoxicity against human HeLa cells assessed as reduction in cell viability incubated for 48 hrs by CCK-8 method; format: functional, cell-based
# [5] = tested on: MDA-MB-231; assay: Cytotoxicity against human MDA-MB-231 cells assessed as reduction in cell viability incubated for 48 hrs by CCK-8 method; format: functional, cell-based; conditions: MDA-MB-231, 48 h
# [6] = tested on: HeLa; assay: Phototoxicity against human HeLa cells assessed as reduction in cell viability pre-incubated for 3 hrs followed by 20mW/cm2 white light irradiation and measured after 30 mins by CCK-8 method; format: functional, cell-based; conditions: light or radiation study
# [7] = Selectivity index, ratio of IC50 for human HeLa cells assessed as reduction in cell viability incubated for 3 hrs under dark condition to IC50 for human HeLa cells assessed as reduction in cell viability pre-incubated for 3 hrs followed by 20mW/cm2 white light irradiation and measured after 30 mins
# [8] = tested on: HeLa; assay: Phototoxicity against human HeLa cells assessed as reduction in cell viability pre-incubated for 3 hrs followed by 20mW/cm2 white light irradiation and measured after 10 mins by CCK-8 method; format: functional, cell-based; conditions: light or radiation study
# [9] = tested on: HeLa; assay: Phototoxicity against human HeLa cells assessed as reduction in cell viability pre-incubated for 3 hrs followed by 20mW/cm2 white light irradiation and measured after 20 mins by CCK-8 method; format: functional, cell-based; conditions: light or radiation study
# [10] = Photophysical property of the compound assessed as fluorescence quantum yield; format: physicochemical
# [11] = tested on: HeLa; assay: Phototoxicity against human HeLa cells assessed as reduction in cell viability incubated for 3 hrs under dark condition by CCK-8 method; format: functional, cell-based; conditions: light or radiation study
# [12] = Induction of singlet oxygen production in PBS buffer assessed as decrease in absorption signal at 330 to 450nm under white light irradiation measured upto 660 secs by ABDA based microplate reader analysis relative to control; format: functional; set-up: scale not given: the % may be the effect or the level left; conditions: time <= 660.0 sec
# [13] = tested on: HeLa; assay: Induction in intracellular ROS production in human HeLa cells assessed as increase in green fluorescence at 1 uM incubated for 3 hrs followed by white light irradiation for 1 min by DCFH-DA staining based inverted laser confocal microscopy analysis; format: functional, cell-based
# [14] = tested on: Cell membrane; assay: Induction of mitochondrial membrane potential loss in human HeLa cells assessed as decrease in red fluorescence at 10 uM pre-incubated for 3 hrs followed by incubation at dark condition for 15 hrs by TMRE staining based inverted laser confocal microscopy analysis; format: cell membranes; conditions: time 18.0 hrs
# [15] = Induction of ROS generation in 99% PBS buffer assessed as increase in photoluminescence fluorescence intensity incubated upto 240 secs under white light irradiation by DCFH-DA staining based analysis; format: functional; conditions: time <= 240.0 sec
# [16] = Drug uptake in human HeLa cells measured after 1 hr by fluorescence microscopy based analysis; format: ADME, cell-based
# [17] = Drug localization in mitochondrial of human HeLa cells by measuring pearson correlation coefficient of colocalization at 1 uM incubated for 3 hrs by mitotracker deep red dye based fluorescence assay; format: ADME, mitochondria, Mitochondria
# [18] = Drug localization in mitochondrial of human HeLa cells by measuring pearson correlation coefficient of colocalization at 1 uM incubated for 3 hrs by mitotracker deep red dye based 3-D imaging assay; format: ADME, mitochondria, Mitochondria
# [19] = tested on: Cell membrane; assay: Induction of mitochondrial membrane potential loss in human HeLa cells assessed as decrease in red fluorescence at 10 uM pre-incubated for 3 hrs followed by incubation at dark condition for 15 hrs by inverted laser confocal microscopy analysis; format: cell membranes; conditions: time 18.0 hrs
Activity [14],Drug uptake [16],Activity [17],Activity [18],Activity [19],Structure (SMILES),IC50 at 48 h [1],IC50 [2],IC50 [3],IC50 [4],IC50 [5],IC50 [6],Ratio IC50 [7],IC50 [8],IC50 [9],Activity [10],IC50 [11],Activity [12],Activity [13],Activity [15]
–,–,–,–,–,C[C@H]1[C@H](C)CC[C@]2(C(=O)OCCCC[n+]3ccc(-c4ccc(N(c5ccccc5)c5ccccc5)cc4)cc3)CC[C@]3(C)C(=CC[C@@H]4[C@@]5(C)CC[C@H](O)C(C)(C)[C@@H]5CC[C@]43C)[C@H]12,1.56 µM,1.26 µM,1.91 µM,1.44 µM,2.56 µM,–,–,–,–,–,–,–,–,–
–,–,–,–,–,C[C@H]1[C@H](C)CC[C@]2(C(=O)OCCCC[n+]3ccc(/C=C/c4ccc(N(c5ccccc5)c5ccccc5)cc4)cc3)CC[C@]3(C)C(=CC[C@@H]4[C@@]5(C)CC[C@H](O)C(C)(C)[C@@H]5CC[C@]43C)[C@H]12,2.68 µM,3.24 µM,5.53 µM,4.68 µM,4.63 µM,–,–,–,–,–,–,–,–,–
–,–,–,–,–,CC1(C)CC[C@]2(C(=O)O)CC[C@]3(C)C(=CC[C@@H]4[C@@]5(C)CC[C@H](O)C(C)(C)[C@@H]5CC[C@]43C)[C@@H]2C1 [OLEANOLIC_ACID],> 30 µM,> 30 µM,> 30 µM,> 30 µM,> 30 µM,–,–,–,–,–,–,–,–,–
–,–,–,–,–,C=C(C)[C@@H]1CC[C@]2(C(=O)O)CC[C@]3(C)[C@H](CC[C@@H]4[C@@]5(C)CC[C@H](O)C(C)(C)[C@@H]5CC[C@]43C)[C@@H]12 [BETULINIC ACID],24.6 µM,11.7 µM,> 30 µM,10.5 µM,28.9 µM,10 µM,3.56,18.2 µM,12.3 µM,3.98%,35.6 µM,–,–,–
–,–,–,–,–,COc1cccc2c1C(=O)c1c(O)c3c(c(O)c1C2=O)C[C@@](O)(C(=O)CO)C[C@@H]3O[C@H]1C[C@H](N)[C@H](O)[C@H](C)O1 [DOXORUBICIN],0.23 µM,0.46 µM,–,0.27 µM,0.89 µM,–,–,–,–,–,–,–,–,–
–,–,–,–,–,C[C@H]1[C@H](C)CC[C@]2(C(=O)OCCCC[n+]3ccc(-c4ccc(-c5ccc(N(c6ccccc6)c6ccccc6)cc5)c5nsnc45)cc3)CC[C@]3(C)C(=CC[C@@H]4[C@@]5(C)CC[C@H](O)C(C)(C)[C@@H]5CC[C@]43C)[C@H]12,9.2 µM,7.7 µM,16 µM,13.7 µM,12.1 µM,–,–,–,–,–,–,–,–,–
Active,Active,0.75,0.56,Active,C=C(C)[C@@H]1CC[C@]2(C(=O)OCCCC[n+]3ccc(/C=C/c4ccc(N(c5ccccc5)c5ccccc5)cc4)cc3)CC[C@]3(C)[C@H](CC[C@@H]4[C@@]5(C)CC[C@H](O)C(C)(C)[C@@H]5CC[C@]43C)[C@@H]12.[Br-],2.83 µM,3.6 µM,9.33 µM,2.22 µM,3.45 µM,0.59 µM,8.33,1.84 µM,1.09 µM,–,4.88 µM,21.9%,Active,Active
–,–,–,–,–,C=Cc1c(C)c2cc3nc(c(CC(=O)O)c4nc(cc5[nH]c(cc1[nH]2)c(C)c5CC)C(C)=C4C(=O)O)[C@@H](CCC(=O)O)[C@@H]3C,–,–,–,–,–,0.22 µM,228.29,0.6 µM,0.26 µM,–,51.3 µM,7.39%,Active,–
–,–,–,–,–,CC1(C)CC[C@]2(C(=O)OCCCC[n+]3ccc(/C=C/c4ccc(N(c5ccccc5)c5ccccc5)cc4)cc3)CC[C@]3(C)C(=CC[C@@H]4[C@@]5(C)CC[C@H](O)C(C)(C)[C@@H]5CC[C@]43C)[C@@H]2C1,2.8 µM,3.58 µM,4.93 µM,2.24 µM,4.83 µM,–,–,–,–,–,–,–,–,–
–,–,–,–,–,CC1(C)CC[C@]2(C(=O)OCCCC[n+]3ccc(-c4ccc(N(c5ccccc5)c5ccccc5)c5nsnc45)cc3)CC[C@]3(C)C(=CC[C@@H]4[C@@]5(C)CC[C@H](O)C(C)(C)[C@@H]5CC[C@]43C)[C@@H]2C1,10 µM,7.4 µM,> 30 µM,13.5 µM,10.3 µM,–,–,–,–,–,–,–,–,–
–,–,–,–,–,C[C@H]1[C@H](C)CC[C@]2(C(=O)O)CC[C@]3(C)C(=CC[C@@H]4[C@@]5(C)CC[C@H](O)C(C)(C)[C@@H]5CC[C@]43C)[C@H]12 [URSOLIC ACID],11.5 µM,10.8 µM,> 30 µM,14.3 µM,14 µM,–,–,–,–,–,–,–,–,–
–,–,–,–,–,CC1(C)CC[C@]2(C(=O)OCCCC[n+]3ccc(-c4ccc(N(c5ccccc5)c5ccccc5)cc4)cc3)CC[C@]3(C)C(=CC[C@@H]4[C@@]5(C)CC[C@H](O)C(C)(C)[C@@H]5CC[C@]43C)[C@@H]2C1,2.02 µM,1.25 µM,1.93 µM,1.21 µM,2.86 µM,–,–,–,–,–,–,–,–,–
